Data published in US20230067910A1, “NOVEL COMPOUNDS FOR THE DIAGNOSIS, TREATMENT AND PREVENTION OF DISEASES ASSOCIATED WITH THE AGGREGATION OF ALPHA-SYNUCLEIN” (MODAG GMBH, priority 2019, published 2023).
Where “and” joins values, the source holds several entries; their conditions need not be identical. Equal values may be shown once. Read-outs that look alike come from different tables or passages of the source.

Key:
[1] = biological target: T1, aggregated alpha-synuclein (Homo sapiens, UniProt P37840); assay: Autoradiography using human brain tissue (dementia with Lewy bodies); format: binding
T1 construct: made in house; host or cells: E. coli
Experimental: Autoradiography was performed on histological slices of frozen brain tissue using tritiated compound 1 and brain tissue derived from the cingulate gyrus of a patient with dementia with Lewy bodies.

[2] = biological target: T2, alpha-synuclein (fibrils) (Homo sapiens, UniProt P37840); assay: Competition binding assay, protocol 3a, reference ligand [3H]-compound 1, alpha-synuclein fibrils; details: reference ligand [3H]-compound 1 (1 nM)
T2 construct: made in house; host or cells: E. coli
Experimental: (§1) Alpha-synuclein and tau46 were purified from E. coli according to established protocols (Nuscher B, et al., J. Biol. Chem., 2004; 279(21):21966-75), Aβ1-42 was obtained from rPeptide, Watkinsville, Ga., USA. Fibrils were prepared by aggregation of recombinant protein via constant agitation. In detail, 70 μM of alpha-synuclein mixed with 100 mM NaCl in 50 mM Tris, pH 7.0+0.02% NaN3 were incubated at 1,400 rpm, 37° C. for 96 h. 10 μM of tau46 were incubated with 0.03 mg/ml heparin in 50 mM Tris, pH=7.0 at 1,000 rpm, 37° C. for 72 h. Aβ1-42 was solved in 20 mM NaPi, pH=8.0+0.2 mM EDTA+0.02% NaN3 (Deeg A A, et al., Biochim. Biophys. Acta, 2015; 1850(9): 1884-90; Goedert M, et al. Nature, 1996; 383(6600): 550-3).
(§2) A fixed concentration of sonicated human recombinant αSYN (200 nM/well) or tau46 (208 nM/well) fibrils diluted in phosphate buffered saline (PBS) were incubated in low binding plates (96 well micro test plate, Ratiolab GmbH, Dreieich, Germany) together with 1 nM [^3H]-compound 1 and 1:4 serial dilutions of the cold compound of interest starting from 1 μM diluted in 50 mM Tris-base, 10% EtOH, 0.05% Tween20, pH 7.4. For the calculation of Ki values the KD value of compound 1 toward sonicated human recombinant αSYN fibrils was set to 3 nM.
(§3) Assay plates were incubated under agitation at 37° C. for 2 h covered by plastic foil (Resealable tape, PerkinElmer, Waltham, Mass., USA). Prior to harvesting, a filter (Printed filtermat B, PerkinElmer, Waltham, Mass., USA) was incubated with 5 mg/mL polyethylenimine (PEI, Poly(ethyleneimine) solution, Sigma Aldrich Chemie GmbH, Taufkirchen, Germany) at 4° C. for 30 min. After incubation, bound and free ligands were separated by vacuum filtration using a harvester (Filtermate harvester, PerkinElmer, Waltham, Mass., USA). The filter was washed three times with buffer cooled to 4° C. and subsequently dried in the microwave for 2 min at medium power. The filter was sealed in a plastic bag (Sample bag for MicroBeta®, PerkinElmer, Waltham, Mass., USA) together with added scintillator (BETAPLATE SCINT, PerkinElmer, Waltham, Mass., USA). Accumulation of tritium was counted in a liquid scintillation counter (Wallac MicroBeta® TriLux, 1450 LSC & Luminescence Counter, PerkinElmer, Waltham, Mass., USA) immediately. Radioactivity was plotted against the increasing tritium-labeled compound or cold compound concentrations. Data points were fitted using nonlinear regression analysis in GraphPad Prism (GraphPad Software, Inc., Version 7.03, La Jolla, Calif., USA).
(§4) The fibril competition assay provides Ki values. Ki is a quantitative measure that represents the concentration of the non-radioactive tested compound (competitor ligand) required to replace 50% of a reference compound, in this case [H]-compound 1 (1 nM) or [H]-compound 2 (1 nM), which is bound to the target structures (1 nM), in our case recombinant alpha-synuclein and tau46 fibrils. This assay is suitable for a screening of non-radioactive ligands.

tau46 (fibrils) = biological target: T3, tau46 (fibrils) (Homo sapiens, UniProt P10636); assay: Competition binding assay, protocol 3a, reference ligand [3H]-compound 1, tau46 fibrils; details: Experiment B, reference ligand [3H]-compound 1 (1 nM)
T3 construct: made in house; host or cells: E. coli
T3 sequence (P10636 1-412 isoform P10636-7): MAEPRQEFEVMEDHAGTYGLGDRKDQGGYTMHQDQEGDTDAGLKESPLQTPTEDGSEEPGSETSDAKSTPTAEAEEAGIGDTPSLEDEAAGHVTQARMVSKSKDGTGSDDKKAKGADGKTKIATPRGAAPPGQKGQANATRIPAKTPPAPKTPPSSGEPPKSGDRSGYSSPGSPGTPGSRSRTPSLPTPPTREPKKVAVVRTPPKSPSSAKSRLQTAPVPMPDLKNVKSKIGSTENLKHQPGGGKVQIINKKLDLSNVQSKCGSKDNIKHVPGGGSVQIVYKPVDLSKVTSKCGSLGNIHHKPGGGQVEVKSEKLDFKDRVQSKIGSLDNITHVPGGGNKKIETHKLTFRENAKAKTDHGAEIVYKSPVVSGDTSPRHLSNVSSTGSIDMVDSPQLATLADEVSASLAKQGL
Experimental: as §1, §2, §3, §4

[3] = Experiment B, read-out: Ki (nM) alpha-synuclein (sonicated fibrils)

Row | Autoradiography binding pattern ([1]; [3H]-compound 1 at 3 nM, cingulate gyrus, patient with dementia with Lewy bodies) | Unspecific binding to brain tissue ([1]; specific binding blocked by excess of non-tritiated compound 1) | Ki ([2]; Experiment A, read-out: Ki (nM) alpha-synuclein (fibrils)) | Ki [2, 3] [nM] | Ki (tau46 (fibrils)) [nM] | SMILES
1 | preferential binding to the gray matter | no to very low unspecific binding | – | – | – | CN(C)c1ccc(-c2cc(-c3ccnc(Br)c3)[nH]n2)cc1 [Compound 1, 4-[3-(4-dimethylamino-phenyl)-1H-pyrazol-5-yl]-2-bromopyridine]
2 | – | – | 47 nM and 42 nM | 9 | – | Fc1cc(-c2cc(-c3ccc4c(c3)OCO4)n[nH]2)ccn1 [Compound 12, 4-[3-(1,3-benzodioxol-5-yl)-1H-pyrazol-5-yl]-2-fluoropyridine]
3 | – | – | – | < 2 | 9 | CNc1ccc(-c2cc(-c3ccnc(Br)c3)[nH]n2)cc1 [Compound 2, 4-[5-(2-bromopyridin-4-yl)-1H-pyrazol-3-yl]-N-methylaniline]
